The values below come from ChEMBL document CHEMBL1127377, “2-Substitution of N6-benzyladenosine-5'-uronamides enhances selectivity for A3 adenosine receptors” (J Med Chem, 1994).

One assay deals with T1, Adenosine receptor A1 (Rattus norvegicus, UniProt P25099).
T1 sequence (P25099 whole entry): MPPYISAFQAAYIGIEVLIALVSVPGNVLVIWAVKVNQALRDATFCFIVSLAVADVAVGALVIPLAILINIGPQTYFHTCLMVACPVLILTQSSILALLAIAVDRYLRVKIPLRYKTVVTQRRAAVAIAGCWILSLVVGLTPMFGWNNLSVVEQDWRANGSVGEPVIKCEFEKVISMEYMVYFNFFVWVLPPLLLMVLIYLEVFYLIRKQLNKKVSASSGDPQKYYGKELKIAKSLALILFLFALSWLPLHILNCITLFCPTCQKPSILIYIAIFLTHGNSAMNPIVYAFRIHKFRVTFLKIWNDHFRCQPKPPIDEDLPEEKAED

The target of the next assay is T2, Adenosine receptor A3 (Rattus norvegicus, UniProt P28647).
T2 sequence (P28647 whole entry): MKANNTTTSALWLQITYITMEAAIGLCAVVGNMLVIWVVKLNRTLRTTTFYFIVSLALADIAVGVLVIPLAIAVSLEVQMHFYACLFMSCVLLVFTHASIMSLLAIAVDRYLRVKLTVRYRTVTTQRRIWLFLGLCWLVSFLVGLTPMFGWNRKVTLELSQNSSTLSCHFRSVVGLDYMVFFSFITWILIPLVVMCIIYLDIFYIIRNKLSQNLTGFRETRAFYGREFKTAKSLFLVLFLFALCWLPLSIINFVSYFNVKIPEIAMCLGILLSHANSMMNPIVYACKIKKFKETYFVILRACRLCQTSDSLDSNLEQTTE
As to the kind of experiment: biochemical.

The next assay has as its target Adenosine receptor A2a (Rattus norvegicus, UniProt P30543).

Usually Ki stands for a dissociation constant, usually derived from enzyme kinetics or from competition with a known ligand. The low end stands for higher affinity, the high end for lower affinity.

Sequence of Adenosine receptor A2a (P30543 whole entry): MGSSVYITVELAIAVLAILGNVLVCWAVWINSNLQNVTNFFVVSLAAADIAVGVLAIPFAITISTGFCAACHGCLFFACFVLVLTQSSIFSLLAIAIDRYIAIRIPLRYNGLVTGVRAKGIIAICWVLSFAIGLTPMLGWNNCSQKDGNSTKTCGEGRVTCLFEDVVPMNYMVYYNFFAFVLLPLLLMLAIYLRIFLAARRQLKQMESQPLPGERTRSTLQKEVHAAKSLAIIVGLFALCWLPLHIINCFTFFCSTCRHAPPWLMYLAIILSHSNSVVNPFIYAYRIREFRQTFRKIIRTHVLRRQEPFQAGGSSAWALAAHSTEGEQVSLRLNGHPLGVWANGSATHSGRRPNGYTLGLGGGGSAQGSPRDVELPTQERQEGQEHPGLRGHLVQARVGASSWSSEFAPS
Description for Adenosine receptor A1: Tested for the binding affinity of A1 receptor by displacing the [3H]-PIA in rat brain membranes
Description for Adenosine receptor A3: Tested for the binding affinity of A3 receptor by displacing N6-[[125I]-4-amino-3-iodobenzyl]-adenosine-5''-N-methyluronamide from membranes of CHO cells transfected with rat A3-cDNA

In turn, `Nc1ccc(CCNc2ncnc3c2ncn3[C@@H]2O[C@H](CO)[C@@H](O)[C@H]2O)cc1` came in with a Ki on Adenosine receptor A1 of 14 nM.
For the compound `Nc1ccc(CCNc2ncnc3c2ncn3C2O[C@H](CO)[C@@H](O)[C@H]2O)cc1I` (stereo not given in full), the Ki on Adenosine receptor A3 turned out to be 15.5 nM; on Adenosine receptor A1, 2.1 nM.
At Adenosine receptor A2a, `OC[C@H]1O[C@@H](n2cnc3c(NC4CCCC4)ncnc32)[C@H](O)[C@@H]1O` [N6-CYCLOPENTYLADENOSINE] had an inhibition constant (Ki) of 462 nM. That is a sub-micromolar value.
Still for that read-out and setting: next, `CNC(=O)[C@H]1O[C@@H](n2cnc3c(NCc4ccc(N)c(I)c4)ncnc32)[C@H](O)[C@@H]1O`: 197 nM.
